Reference: publication PMC7961587, “Novel Cell Permeable Polymers of N-Substituted L-2,3-Diaminopropionic Acid (DAPEGs) and Cellular Consequences of Their Interactions with Nucleic Acids” (International Journal of Molecular Sciences, 2021)
Square brackets hold non-standard residues; d marks the D form. Peptide text beside a SMILES is read from it. * marks the point of attachment. 5FAM = O=C1OC2(c3ccc(O)cc3Oc3cc(O)ccc32)c2ccc(C(=O)*)cc21; Acetyl(2-(HOCH2CH2OCH2CH2O)) = O=C(COCCOCCO)*; Dap = NC[C@H](N)C(=O)O; AEEA = NCCOCCOCC(=O)O

Tests used:
[1] = system: HB2 and MDA-MB-231 cells; assay: Cell permeability and localization by fluorescence microscopy; format: cell-based, human; settings: for Cell membrane crossing and localization, in words: 10 µM, fluorescence microscopy, HB2 or MDA-MB-231 cells; for Cell Permeablility (Target): cellular localization: fluorescence microscope Olympus IX51, 10 µM fluorescently labeled compound, DAPI nucleus staining
Source text: Preliminary cell permeability experiments facilitated the identification of three groups of compounds. […] The first group includes compound 4 and its derivatives (4a and 4b) and the family of compound 5 (5a and 5b). Compounds 4 and 5 are similar in structure and are composed of six residues of diaminopropionic acid (Dap) decorated with side chains of different lengths, terminating with the same highly positive guanidine moiety. […] Both compounds display unique cellular localization. […] We believe that such effective nuclear localisation of the first group of tested compounds is due to the effective mimicking of the nuclear localisation sequence (NLS). Such sequence consists of several positively charged lysines or arginines present in the protein structure. Additionally, side chain length of the polymer molecules seems to be a crucial factor that is optimal for compounds belonging to first group of polymers.
HB2 and MDA-MB-231 cells were seeded on 24-well plates at a density 1.5 × 10^4/well and 4 × 10^4/well, respectively, and incubated in 0.5 mL complete medium for 48 h. Subsequently, cells were washed with phosphate-buffered saline (PBS), and fresh medium with a fluorescently labeled peptide was added to each well at a concentration of 10 µM. For nucleus staining a DAPI solution (ThermoFisher Scientific, Waltham, MA, USA, […] R37606) in PBS was employed in conditions recommended by the supplier. After the incubation (2 h or 24 h), cells were washed thoroughly with PBS, and then a phenol red-free culture medium (FluoroBrite, DMEM) was added. Subsequently, the cells were examined using an Olympus IX51 fluorescence microscope (Olympus, Tokyo, Japan) using appropriate filters: blue for DAPI, green for FITC, and red TAMRA. Next, the images were merged and colocalization of the dyes’ emission were analyzed.

[2] = target: dsDNA (76 bp fragment) containing the sequence of beta-actin; assay: Microscale thermophoresis (MST), dsDNA binding; parameters: species or system Homo sapiens; settings: Monolith NT.115, 0.437 µM 5/6-FAM-labeled compound, dsDNA 6.1 nM–200 µM, EDBS buffer pH 8, 32 °C 1 h, scanned at 25 °C, at least two independent experiments, read-out: Binding constant, double-stranded DNA (MST)
Description: (§1) Figure 7 Microscale thermophoresis (MST) analysis of dsDNA binding by 5/6-FAM-labeled compounds. The MST analysis. FAM-labeled compounds 1a (A), 4a (B), 5a (C), and ssDNA binding by 5/6-FAM-labeled compounds 1a (E), 4a (F), 5a (G) was performed using the Monolith NT.115 instrument (NanoTemper). Binding was measured between increasing concentrations (6.1 nM–200 µM) of dsDNA (76 bp fragment) and 0.437 µM of the indicated compounds labeled with 5/6-FAM. Control experiments were performed with DNA and 5/6-FAM dye (D,H).
(§2) Figure 9 Microscale thermophoresis (MST) analysis of dsDNA binding by 5/6-FAM-labeled compounds. The MST analysis of dsDNA binding by 5/6-FAM-labeled compounds 13a (A) and 14a (B), and ssDNA binding by 5/6-FAM-labeled compounds 13a (D) and 14a (E) was performed using the Monolith NT.115 instrument (NanoTemper). Binding was measured between increasing concentration (6.1 nM–200 µM) of dsDNA (76 bp fragment) and 0.437 µM of the indicated compounds labeled with 5/6-FAM. A control experiment was performed with DNA and 5/6-FAM dye (C,F).
(§3) Microscale thermophoresis was performed using the Monolith NT.115 instrument (NanoTemper Technologies GmbH, Munich, Germany). Binding between dsDNA (76 bp) or ssDNA (76 nt) fragments and test compounds labeled with 5/6-FAM was measured. […] All data were analyzed using MO Affinity Analysis software (NanoTemper, Munich, Germany).

[3] = target: ssDNA (76 nt) fragment; assay: Microscale thermophoresis (MST), ssDNA binding; parameters: species or system Homo sapiens; settings: Monolith NT.115, 0.437 µM 5/6-FAM-labeled compound, EDBS buffer pH 8, 32 °C 1 h, scanned at 25 °C, at least two independent experiments, read-out: Binding constant, single-stranded DNA (MST)
Description: as §1, §2, §3

[4] = system: MDA-MB-231 or HB-2 cell lines; assay: Cytotoxicity assay: MTT; format: cell-based, human; settings: for Cytotoxicity at the concentration used in the cell experiments, in words: 10 µM, MTT, Figure S2, HB-2 and MDA-MB-231; for Cytotoxicity (percentage of dead cells): MTT assay, MDA-MB-231 or HB-2 cell lines, greatest concentration of 50 µg/mL, 24 h
Description: Cell viability against cell-penetrating compounds was detected by the MTT assay. The HB2 and MDA-MB-231 cells were seeded into 96-well plates at a density of 5 × 10^3/well and 7 × 10^3/well, respectively, and incubated in complete medium (100 µL/well) for 48 h. […] Cells incubated in media without any test compounds were used as control. After incubation, medium containing test compounds was removed, and 225 µL fresh medium with 25 µL 3-(4,5-dimethylthiazol-2-yl)-2,5-diphenyltetrazolium bromide (MTT) was added (0.5 mg/mL per well). After incubation at 37 °C for 4 h, supernatants were removed, and the formazan crystals were dissolved overnight with dimethyl sulfoxide (DMSO; 150 µL/well). Results were analyzed using a microplate reader (SPECTROstar Nano, BMG LABTECH, Ortenberg, Germany) at 570 nm and 690 nm.

[5] = system: 76 bp dsDNA fragment containing the sequence of β-actin; assay: Surface plasmon resonance (SPR), dsDNA binding; parameters: species or system Homo sapiens; settings: 50 and 100 µM compound over immobilized 76 bp dsDNA, HBS-EP buffer
Description: Standard surface plasmon resonance (SPR) analyses using a Biacore T200 (GE Healthcare, Warsaw, Poland) were performed essentially as described in the manufacturers’ manual. DNA binding by all tested compounds was studied using a 5′-biotinylated 76 nt ssDNA or 76 bp dsDNA fragment containing the sequence of β-actin (Homo sapiens), immobilized on a streptavidin matrix-coated sensor chip SA (GE Healthcare, Warsaw, Poland). All oligonucleotides were commercially synthesized (oligo.pl, Poland; Figures S3 and S4). The dsDNA was immobilized on the sensor surface to yield a final value of ~50 RU for dsDNA or ~100 RU. Experiments were performed at 25 °C, and the running buffer was HBS-EP (150 mM NaCl, 10 mM HEPES (pH = 7.4), 3 mM EDTA, and 0.05% Surfactant P20). In binding experiments, the buffer flow rate was set to 15 µL/min, and in kinetic experiments, the buffer flow rate was 30 µL/min. The data were analyzed using Biacore T200 evaluation software (GE Healthcare, Warsaw, Poland). The results are presented as sensorgrams obtained after subtracting the background response signal from a reference flow cell and from a control experiment with buffer injection.
Figure 2S. Cytotoxicity of compounds 1a–9a as assessed by the MTT assay. Two different cell lines were used: A) HB‐2 and B) MDA‐MB‐231.
Figure 3S. Surface plasmon resonance SPR analysis of double‐stranded DNA (dsDNA) binding by various peptidomimetics. The SPR analysis of dsDNA binding was performed using: A) 50 μM and B) 100 μM of the indicated compounds, flowed over the SA sensor chip surface with immobilized 76 bp biotinylated DNA fragment containing the sequence of beta‐ actin (Homo sapiens). Injections were performed in HBS‐EP buffer. HBS‐EP was also used as […]
Figure 4S. SPR analysis of DNA binding by compound 5a. […] (C) Kinetic constants calculated from at least three experiments using Biacore T200 Evaluation Software […]

Cell Permeablility (Target): cellular localization [1] | Molecule | Cell membrane crossing and localization, in words [1] | Cytotoxicity at the concentration used in the cell experiments, in words [4] | DNA binding class set arbitrarily from the SPR experiment (Figure S3) [5] | Cytotoxicity (percentage of dead cells) [4] [%] | also measured
cytoplasm | 5′,6-FAM -O2Oc-(D-arg)6-O2Oc-NH2 [2a] | partially visible in the cytoplasm in the form of granules | slightly cytotoxic | – | – | –
nucleus | N=C(N)NCCOCCOCC(=O)NC[C@H](NC(=O)COCCOCCNC(=O)c1ccc2c(c1)C(=O)OC21c2ccc(O)cc2Oc2cc(O)ccc21)C(=O)N[C@@H](CNC(=O)COCCOCCNC(=N)N)C(=O)N[C@@H](CNC(=O)COCCOCCNC(=N)N)C(=O)N[C@@H](CNC(=O)COCCOCCNC(=N)N)C(=O)N[C@@H](CNC(=O)COCCOCCNC(=N)N)C(=O)N[C@@H](CNC(=O)COCCOCCNC(=N)N)C(=O)N[C@@H](CNC(=O)COCCOCCNC(=N)N)C(=O)N[C@@H](CNC(=O)COCCOCCNC(=N)N)C(=O)NCCOCCOCC(N)=O [compound 14a, 5′,6-FAM-O2Oc-[Dap(GO2)]8-O2Oc-NH2] | efficiently penetrate the membrane and localized in the nucleus | – | – | – | –
cytoplasm | 5′,6-FAM -O2Oc-(Har)6-O2Oc-NH2 [3a] | partially visible in the cytoplasm in the form of granules | slightly cytotoxic | – | – | –

Further lines, the molecule ahead of its results:

Molecule | Cell Permeablility (Target): cellular localization [1] | Cell membrane crossing and localization, in words [1] | Cytotoxicity at the concentration used in the cell experiments, in words [4] | DNA binding class set arbitrarily from the SPR experiment (Figure S3) [5] | Cytotoxicity (percentage of dead cells) [4] [%] | also measured
NCCOCCOCC(=O)NC[C@H](NC(=O)COCCOCCNC(=O)c1ccc2c(c1)C(=O)OC21c2ccc(O)cc2Oc2cc(O)ccc21)C(=O)N[C@@H](CNC(=O)COCCOCCN)C(=O)N[C@@H](CNC(=O)COCCOCCN)C(=O)N[C@@H](CNC(=O)COCCOCCN)C(=O)N[C@@H](CNC(=O)COCCOCCN)C(=O)N[C@@H](CNC(=O)COCCOCCN)C(=O)NCCOCCOCC(N)=O [8a, 5′,6-FAM-O2Oc-[Dap(O2)]6-O2Oc-NH2] ({5FAM-AEEA}-[Dap](AEEA)[Dap](AEEA)[Dap](AEEA)[Dap](AEEA)[Dap](AEEA)[Dap](AEEA)[AEEA]-NH2) | – | did not cross the cell membrane | – | – | – | –
5′,6-FAM-O2Oc-(Arg)6-O2Oc-NH2 [1a] | cytoplasm | partially visible in the cytoplasm in the form of granules | slightly cytotoxic | – | – | Kd [2]: 7.4 ± 0.1 µM; Kd [3]: 0.02 ± 0.04 µM
NC(=O)COCCOCCNC(=O)[C@H](CNC(=O)COCCOCCO)NC(=O)[C@H](CNC(=O)COCCOCCO)NC(=O)[C@H](CNC(=O)COCCOCCO)NC(=O)[C@H](CNC(=O)COCCOCCO)NC(=O)[C@H](CNC(=O)COCCOCCO)NC(=O)[C@H](CNC(=O)COCCOCCO)NC(=O)COCCOCCNC(=O)c1ccc2c(c1)C(=O)OC21c2ccc(O)cc2Oc2cc(O)ccc21 [9a, 5′,6-FAM-O2Oc-[Dap(HO2)]6-O2Oc-NH2] ({5FAM-AEEA}-[Dap](Acetyl(2-(HOCH2CH2OCH2CH2O)))[Dap](Acetyl(2-(HOCH2CH2OCH2CH2O)))[Dap](Acetyl(2-(HOCH2CH2OCH2CH2O)))[Dap](Acetyl(2-(HOCH2CH2OCH2CH2O)))[Dap](Acetyl(2-(HOCH2CH2OCH2CH2O)))[Dap](Acetyl(2-(HOCH2CH2OCH2CH2O)))[AEEA]-NH2) | – | did not cross the cell membrane | – | – | – | –
N=C(N)NCCC[C@@H](NC(=O)COCCOCCN)C(=O)N[C@H](CCCNC(=N)N)C(=O)N[C@H](CCCNC(=N)N)C(=O)N[C@H](CCCNC(=N)N)C(=O)N[C@H](CCCNC(=N)N)C(=O)N[C@H](CCCNC(=N)N)C(=O)NCCOCCOCC(N)=O [compound 2, O2Oc(D-arg)6-O2Oc-NH2] | – | – | – | Moderate | 15 | –
5′,6-FAM [compound 10, reference compound] | – | – | – | – | – | Kd [2]: 639 ± 703 µM; Kd [3]: 399 ± 497 µM
N=C(N)NCCC[C@H](NC(=O)COCCOCCN)C(=O)N[C@@H](CCCNC(=N)N)C(=O)N[C@@H](CCCNC(=N)N)C(=O)N[C@@H](CCCNC(=N)N)C(=O)N[C@@H](CCCNC(=N)N)C(=O)N[C@@H](CCCNC(=N)N)C(=O)NCCOCCOCC(N)=O [compound 1, O2Oc(Arg)6-O2Oc-NH2] | – | – | – | Moderate | 10 | –
N=C(N)NCCCC[C@H](NC(=O)COCCOCCN)C(=O)N[C@@H](CCCCNC(=N)N)C(=O)N[C@@H](CCCCNC(=N)N)C(=O)N[C@@H](CCCCNC(=N)N)C(=O)N[C@@H](CCCCNC(=N)N)C(=O)N[C@@H](CCCCNC(=N)N)C(=O)NCCOCCOCC(N)=O [compound 3, O2Oc-(Har)6-O2Oc-NH2] | – | – | – | Weak | 10 | –
